Source: patent US11395798B2, “O/W type emulsion” (NOF CORPORATION, priority 2015, dated 2022)

Experiments:
[1] = influence of concentration of PEG lipid on retentivity in blood; type: in vivo; settings: B-2/DOPC/Chol=3/4/3, 10 mol % DMG-PEG2000, 3-9 mol % DSG-PEG2000, 10 mol % Dex-CHEMS; mouse tail vein; almost equal for 6 and 9 mol %
Method: An emulsion having a composition of B-2/DOPC/Chol=3/4/3+10 mol % DMG-PEG2000+3-9 mol % DSG-PEG2000+10 mol % Dex-CHEMS was prepared in the same manner as in Example 1. An emulsion having each PEG amount was administered from the mouse tail vein, plasma was collected 1 min, 1 hr, 6 hr and 24 hr later, extracted with an organic solvent, and Dex-CHEMS concentration was calculated by HPLC. Along with an increase in DSG-PEG2000, the retentivity in blood was improved to become almost equal for DSG-PEG2000 6 mol % and 9 mol %.

[2] = retentivity in blood of Dex-CHEMS / Dex-Pal emulsions (HPLC of plasma); design: species or system ICR mouse; settings: mouse, in vivo, iv
Method: When the lipid composition was 3 mM B-2/DOPC/Chol=3/4/3+10 mol % Dex-CHEMS+10 mol % DMG-PEG2000+10 mol % DSG-PEG2000 (1000 μL), a lipid solution was mixed in vitro as follows.
The solvent was evaporated once and the residue was redissolved in 100 μL CHCl3. N2 gas was blown to form a lipid thin film on the wall of a test tube. After a few hours of a vacuum treatment by a desiccator, 20 mM Maric acid buffer (30 mM NaCl, pH 3.0, 1000 μL) was added, and the mixture was incubated for 10 min at room temperature. After sonication with a bath-type sonicator for 30 sec, the mixture was sonicated by a probe-type sonicator for 5 min (output power: 30%). After centrifugation at 4° C., 15000 g for 5 min, the supernatant was collected. Neutralization was performed by adding an equal amount of 36 mM NaOH/PBS.
An emulsion composed of Dex-CHEMS and B-2 was administered to ICR mouse (4 w ♂) at 25 μg Dex-CHEMS/mouse. […]
Plasma (16.5 μL) centrifuged at 4° C., 1000 g for 10 min was transferred to another 1.5 mL tube. […] Using HPLC, the peak area of Dex-CHEMS and the peak area of 4 MU-Pal were calculated. The peak area of 0.5, 0.25, 0.125, 0.0625 nmol Dex-CHEMS was calculated by a similar method using HPLC and used as an analytical curve. […]
The residual rate in blood at 1 hr later was calculated with that 1 min after the administration as 100%.

## CC(C)CCC[C@@H](C)[C@H]1CC[C@H]2C3CC=C4C[C@@H](OC(=O)CCC(=O)OCC(=O)[C@]5(O)[C@@H](C)C[C@@H]6[C@H]7CCC8=CC(=O)C=C[C@@]8(C)[C@]7(F)C(O)C[C@]65C)CC[C@]4(C)[C@H]3CC[C@]12C (some centres unmarked) [Dex-CHEMS, dexamethasone cholesterol hemisuccinate]
[1]
  retentivity in blood along with an increase in DSG-PEG2000: improved
[2]
  residual in blood at 1 hr (1 min after administration as 100%): continuously remained
